Assay [1] deals with Staphylococcus aureus (RA) ATCC25923. Particulars: for MIC: Staphylococcus aureus (RA) ATCC25923, >25 means greater than or equal to 50 μg/mL; for inhibitory effect / antiseptic activity in words: against Staphylococcus aureus (RA) ATCC25923 and/or Escherichia coli ATCC25922.
For assay [2], the system named is Escherichia coli (E. coli) ATCC25922. Particulars: >25 means greater than or equal to 50 μg/mL.

No end group written: not given here.

Broadly, the MIC is the lowest concentration found to suppress growth.

“IFFIRIARLLRIF [Ctryamp polypeptide mutant 22, IFFIRIARLLRIF]”: the results for the MIC in assay [1] and in assay [2] were 12.5 µg/mL and above 25 µg/mL, respectively.
With “FIRIARLLRIFFIRIARLLRIF [Ctryamp polypeptide mutant 31]”, the MIC in assay [1] and in assay [2] was above 25 µg/mL each time.
“FIKIGKLLKIF [Ctryamp polypeptide mutant 6, FIKIGKLLKIF]”: the MIC amounted to 25 µg/mL in assay [1] and 12.5 µg/mL in assay [2].
For “RLLRIF [Ctryamp polypeptide mutant 15, RLLRIF]”, the MIC in assay [1] and in assay [2] was above 25 µg/mL in each case.
On to “RIFFIRIARLLRIF [Ctryamp polypeptide mutant 23, RIFFIRIARLLRIF]”, for which the MIC in assay [1] and in assay [2] was 12.5 µg/mL in each case.
For “IRIARLLRIFFIRIARLLRIF [Ctryamp polypeptide mutant 30]”, the MIC in assay [1] and in assay [2] was above 25 µg/mL each time.
As to “FIRIARLLEIF [Ctryamp polypeptide mutant 1, FIRIARLLEIF]”, in assay [1], the MIC was above 25 µg/mL and the “inhibitory effect / antiseptic activity in words” value was “no antiseptic activity”. In assay [2], the MIC was above 25 µg/mL.
In the case of “ARLLRIFFIRIARLLRIF [Ctryamp polypeptide mutant 27, ARLLRIFFIRIARLLRIF]”, the MIC in assay [1] and in assay [2] was above 25 µg/mL throughout.
Consider “FIRIARLLIF [Ctryamp polypeptide mutant 11, FIRIARLLIF]”, for which the MIC in assay [1] and in assay [2] was above 25 µg/mL in each case.
As for “FFIRIARLLRIF [Ctryamp polypeptide mutant 21, FFIRIARLLRIF]”, the MIC in assay [1] was 12.5 µg/mL; in assay [2] it was 25 µg/mL.
The matching figures for “GFIRIARLLRIF [Ctryamp polypeptide mutant 16, GFIRIARLLRIF]”: 6.25 µg/mL and 6.25 µg/mL.
As for “Ac-FIRIARLLRIF [Ctryamp polypeptide mutant 32, Ac-FIRIARLLRIF]”, the MIC was 6.25 µg/mL in assay [1] and 25 µg/mL in assay [2]. In addition, the “inhibitory effect / antiseptic activity in words” value in assay [1] was “still have the antiseptic activity”.
Take “LRIFFIRIARLLRIF [Ctryamp polypeptide mutant 24, LRIFFIRIARLLRIF]”: the MIC in assay [1] was 25 µg/mL; in assay [2] it was above 25 µg/mL.
The matching figures for “FIRRLLRIF [Ctryamp polypeptide mutant 12, FIRRLLRIF]”: 12.5 µg/mL and 25 µg/mL.
The matching figures for “FIKRIARLLRIF [Ctryamp polypeptide mutant 20, FIKRIARLLRIF]”: 6.25 µg/mL and 6.25 µg/mL.
For the substance “FIRLRIF [Ctryamp polypeptide mutant 14, FIRLRIF]”, the MIC in assay [1] and in assay [2] was above 25 µg/mL in each case.
Turning to “RLLRIFFIRIARLLRIF [Ctryamp polypeptide mutant 26, RLLRIFFIRIARLLRIF]”, the MIC in assay [1] and in assay [2] was above 25 µg/mL each time.
Take “FIRIARLLRKIF [Ctryamp polypeptide mutant 17, FIRIARLLRKIF]”: the MIC in assay [1] came out at 6.25 µg/mL; in assay [2], 12.5 µg/mL.
On to “FIRIARLRIF [Ctryamp polypeptide mutant 8, FIRIARLRIF]”, for which the MIC was found to be 25 µg/mL in assay [1] and 12.5 µg/mL in assay [2].
As to “IARLLRIFFIRIARLLRIF [Ctryamp polypeptide mutant 28, IARLLRIFFIRIARLLRIF]”, the MIC in assay [1] and in assay [2] was above 25 µg/mL each time.
For the substance “FIKIGKILKIF [Ctryamp polypeptide mutant 7, FIKIGKILKIF]”, the results for the MIC in assay [1] and in assay [2] were above 25 µg/mL and 12.5 µg/mL, respectively.
Turning to “FIRKIARLLRIF [Ctryamp polypeptide mutant 19, FIRKIARLLRIF]”, the MIC in assay [1] and in assay [2] was 6.25 µg/mL each time.

The record behind these values is patent US10654895B2, “Polypeptide, DNA molecule encoding the polypeptide, vector, preparation method and use” (WUHAN MORE BIOTECHNOLOGY CO., LTD., priority 2013, dated 2020).
